Test results as given in patent US10758534B2 (Vertex Pharmaceuticals Incorporated, priority 2014, dated 2020).

What follows are compounds tested against T1, F508del (Homo sapiens, UniProt P13569, DEL508-508) (assay: Protocol 2: FRET membrane potential optical assay (VIPR), identification of correction compounds). Conditions: not given.
T1 construct: expressed in transfected cells
Format: cell-based
Outline: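 NIH3T3 mouse fibroblasts stably expressing F508del-CFTR incubated with compound 16 h at 37 °C in serum-free medium, then loaded with CC2-DMPE/DiSBAC2(3) FRET dyes. Channel activated with 10 μM forskolin plus 20 μM genistein in Cl⁻-free (gluconate) bath; depolarisation from Cl⁻ efflux read on VIPR II.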

T1 sequence (P13569 with tags, fused parts or gaps DEL508-508): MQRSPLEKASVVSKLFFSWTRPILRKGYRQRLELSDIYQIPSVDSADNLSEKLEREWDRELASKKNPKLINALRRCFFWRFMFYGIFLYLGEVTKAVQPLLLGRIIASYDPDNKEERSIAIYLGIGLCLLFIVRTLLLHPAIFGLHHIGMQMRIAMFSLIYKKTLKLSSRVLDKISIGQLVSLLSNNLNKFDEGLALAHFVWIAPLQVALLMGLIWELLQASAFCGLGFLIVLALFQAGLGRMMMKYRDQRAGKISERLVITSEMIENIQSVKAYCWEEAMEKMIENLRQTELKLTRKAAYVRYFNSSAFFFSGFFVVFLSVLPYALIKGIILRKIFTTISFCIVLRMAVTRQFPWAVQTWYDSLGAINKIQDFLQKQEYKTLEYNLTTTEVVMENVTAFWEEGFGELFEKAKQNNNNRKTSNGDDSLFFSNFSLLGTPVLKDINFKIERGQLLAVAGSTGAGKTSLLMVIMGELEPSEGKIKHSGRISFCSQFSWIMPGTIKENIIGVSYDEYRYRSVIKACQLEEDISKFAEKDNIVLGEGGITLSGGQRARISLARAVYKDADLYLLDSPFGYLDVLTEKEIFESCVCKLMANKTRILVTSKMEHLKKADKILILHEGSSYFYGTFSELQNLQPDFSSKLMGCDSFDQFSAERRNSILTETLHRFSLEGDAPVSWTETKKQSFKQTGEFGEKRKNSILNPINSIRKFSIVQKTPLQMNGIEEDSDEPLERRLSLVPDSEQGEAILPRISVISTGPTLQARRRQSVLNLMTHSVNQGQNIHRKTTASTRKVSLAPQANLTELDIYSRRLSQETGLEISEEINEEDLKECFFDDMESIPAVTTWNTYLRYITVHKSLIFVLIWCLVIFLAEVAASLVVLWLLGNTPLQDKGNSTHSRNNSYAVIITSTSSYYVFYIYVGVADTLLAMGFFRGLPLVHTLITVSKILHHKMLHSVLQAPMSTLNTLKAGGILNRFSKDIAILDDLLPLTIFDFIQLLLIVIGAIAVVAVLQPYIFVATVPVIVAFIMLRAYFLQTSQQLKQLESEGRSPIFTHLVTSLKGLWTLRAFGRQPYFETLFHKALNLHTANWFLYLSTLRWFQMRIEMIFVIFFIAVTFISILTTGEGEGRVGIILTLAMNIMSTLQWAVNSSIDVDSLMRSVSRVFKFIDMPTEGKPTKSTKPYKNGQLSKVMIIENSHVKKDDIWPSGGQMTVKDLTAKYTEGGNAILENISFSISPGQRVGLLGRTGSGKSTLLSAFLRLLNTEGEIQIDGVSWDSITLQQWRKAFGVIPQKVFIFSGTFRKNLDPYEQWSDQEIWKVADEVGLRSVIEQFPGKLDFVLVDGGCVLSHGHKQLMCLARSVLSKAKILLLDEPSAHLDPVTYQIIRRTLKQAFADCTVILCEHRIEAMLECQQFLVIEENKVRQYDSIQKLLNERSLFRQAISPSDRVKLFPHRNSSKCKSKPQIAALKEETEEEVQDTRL

| SMILES | EC30 |
| --- | --- |
| C[C@@H]1CN(c2nc(C3=CC4CCC3C4)ccc2C(=O)NS(=O)(=O)c2cccc(N)n2)C(C)(C)C1 (some centres unmarked) [Compound 2703] | < 3000 nM |

Same assay, conditions: F508del CFTR modulator activity; compounds of Table 1

| EC30 | SMILES |
| --- | --- |
| +++ (“+++” means <3 uM) | CC[C@@H](C)Oc1ccn(-c2ccc(C(=O)NS(=O)(=O)c3cccnc3N)c(N3C[C@@H](C)CC3(C)C)n2)n1 [Compound 2705] |
| +++ (“+++” means <3 uM) | [2H]C([2H])([2H])C([2H])(COc1cc(F)cc(-c2ccc(C(=O)NS(=O)(=O)c3cccc(N)n3)c(N3C[C@@H](C)CC3(C)C)n2)c1)C([2H])([2H])[2H] [Compound 2708, N-[(6-amino-2-pyridyl)sulfonyl]-6-[3-fluoro-5-[2,3,3,3-tetradeuterio-2-(trideuteriomethyl)propoxy]phenyl]-2-[(4S)-2,2,4-trimethylpyrrolidin-1-yl]pyridine-3-carboxamide] |

Same assay, conditions: F508del CFTR modulator activity; compounds of Table 1; read-out: EC30

| SMILES | EC30 |
| --- | --- |
| CC(C)COc1cc(F)cc(-c2cc(N3C[C@@H](C)CC3(C)C)c(C(=O)NS(=O)(=O)c3cccc(N)n3)cn2)c1 [Compound 2679, N-[(6-amino-2-pyridyl)sulfonyl]-6-(3-fluoro-5-isobutoxy-phenyl)-4-[(4S)-2,2,4-trimethylpyrrolidin-1-yl]pyridine-3-carboxamide] | 3000 to 10000 nM |
| C[C@@H]1CN(c2ncccc2C(=O)NS(=O)(=O)N2CC[C@@H](NCc3ccc(F)c(OC(F)(F)F)c3)C2)C(C)(C)C1 [Compound 2680] | 3000 to 10000 nM |
| CCOCCOCCN(C)c1ncc(-c2ccc(C(=O)NS(=O)(=O)c3cccc(N)n3)c(N3C[C@@H](C)CC3(C)C)n2)cc1C [Compound 2681] | < 3000 nM |
| CCOCCN(C)c1ncc(-c2ccc(C(=O)NS(=O)(=O)c3cccc(N)n3)c(N3C[C@@H](C)CC3(C)C)n2)cc1C [Compound 2682] | < 3000 nM |
| CCOCCNc1ncc(-c2ccc(C(=O)NS(=O)(=O)c3cccc(N)n3)c(N3C[C@@H](C)CC3(C)C)n2)cc1C [Compound 2683] | < 3000 nM |
| Cc1cc(-c2ccc(C(=O)NS(=O)(=O)c3cccc(N)n3)c(N3C[C@@H](C)CC3(C)C)n2)cnc1N(C)C(C)C [Compound 2684] | < 3000 nM |
| Cc1cc(-c2ccc(C(=O)NS(=O)(=O)c3cccc(N)n3)c(N3C[C@@H](C)CC3(C)C)n2)cnc1NC(C)C [Compound 2685] | < 3000 nM |
| C[C@@H]1CN(c2nc(-c3ccc(O[C@@H](C)CO)nc3)ccc2C(=O)NS(=O)(=O)c2cccnc2N)C(C)(C)C1 [Compound 2687] | 3000 to 10000 nM |
| COc1ccc(S(=O)(=O)NC(=O)c2ccc(-c3ccc(OC(C)C)nc3)nc2N2C[C@@H](C)CC2(C)C)c(N)n1 [Compound 2688] | < 3000 nM |
| C[C@@H]1CN(c2nc(-n3ccc(OCC4CC4)n3)ccc2C(=O)NS(=O)(=O)c2cccnc2N)C(C)(C)C1 [Compound 2691] | < 3000 nM |
| C[C@@H]1CN(c2ncccc2C(=O)NS(=O)(=O)N2CCCC(NCc3ccc(OC(C)(C)C)cc3)C2)C(C)(C)C1 (some centres unmarked) [Compound 2692] | 3000 to 10000 nM |
| C[C@@H]1CN(c2ncccc2C(=O)NS(=O)(=O)N2CC[C@@H](NCc3ccc(OC(C)(C)C)cc3)C2)C(C)(C)C1 [Compound 2693] | 3000 to 10000 nM |
| Cc1cn(-c2ccc(C(=O)NS(=O)(=O)c3cccnc3N)c(N3C[C@@H](C)CC3(C)C)n2)nc1OCC(C)(C)C [Compound 2694] | < 3000 nM |
| C[C@@H]1CN(c2nc(-n3ccc(C4CC4)n3)ccc2C(=O)NS(=O)(=O)c2cccnc2N)C(C)(C)C1 [Compound 2695] | < 3000 nM |
| C[C@@H]1CN(c2nc(-n3ccc(-c4ccccc4)n3)ccc2C(=O)NS(=O)(=O)c2cccnc2N)C(C)(C)C1 [Compound 2696] | < 3000 nM |
| CCOCCOCCOc1ccc(C(=O)NS(=O)(=O)c2cccnc2N)c(N2C[C@@H](C)CC2(C)C)n1 [Compound 2700] | < 3000 nM |
| CC[C@@H](C)Oc1ccn(-c2ccc(C(=O)NS(=O)(=O)c3cccnc3N)c(N3C[C@@H](C)CC3(C)C)n2)n1 [Compound 2704] | < 3000 nM |
| C[C@@H]1CN(c2ncccc2C(=O)NS(=O)(=O)N2CC[C@@H](NCCCc3ccc(Cl)cc3)C2)C(C)(C)C1 [Compound 2710] | 3000 to 10000 nM |
| C[C@@H]1CN(c2nc(-n3ccc(-c4ccccn4)n3)ccc2C(=O)NS(=O)(=O)C2CC2)C(C)(C)C1 [Compound 2711] | 3000 to 10000 nM |
| COc1ccc(CNc2cccc(S(=O)(=O)NC(=O)c3ccc(C(C)(C)C)nc3N3CC(C)CC3(C)C)n2)cc1 (centres unmarked) [Compound 2712] | < 3000 nM |
| COc1ccc(COc2cccc(S(=O)(=O)NC(=O)c3ccc(C(C)(C)C)nc3N3CC(C)CC3(C)C)n2)cc1 (centres unmarked) [Compound 2713] | < 3000 nM |
| CC(C)CCOc1cccc(S(=O)(=O)NC(=O)c2ccc(C(C)(C)C)nc2N2CC(C)CC2(C)C)n1 (centres unmarked) [Compound 2716] | < 3000 nM |

Other lines, results leading:

| EC30 | SMILES |
| --- | --- |
| < 3000 nM | CCOCCOc1ccc(C(=O)NS(=O)(=O)c2cccnc2N)c(N2C[C@@H](C)CC2(C)C)n1 [Compound 2699] |
| < 3000 nM | Cc1cc(C)cc(-c2ccc(C(=O)NS(=O)(=O)c3cccc(OCCC(C)C)n3)c(N3C[C@@H](C)CC3(C)C)n2)c1 [Compound 2701] |
| < 3000 nM | CC1CN(c2nc(C(C)(C)C)ccc2C(=O)NS(=O)(=O)c2cccc(OCc3ccc4c(c3)OCO4)n2)C(C)(C)C1 (centres unmarked) [Compound 2714] |
| < 3000 nM | C/C=C/COc1cccc(S(=O)(=O)NC(=O)c2ccc(C(C)(C)C)nc2N2CC(C)CC2(C)C)n1 (centres unmarked) [Compound 2715] |
| < 3000 nM | CC1CN(c2ncccc2C(=O)NS(=O)(=O)c2cccc(OCc3c(F)cccc3Cl)n2)C(C)(C)C1 (centres unmarked) [Compound 2717] |
| < 3000 nM | CC1CN(c2ncccc2C(=O)NS(=O)(=O)c2cccc(Oc3cccc(C(F)(F)F)c3)n2)C(C)(C)C1 (centres unmarked) [Compound 2718] |
| < 3000 nM | CC1CN(c2ncccc2C(=O)NS(=O)(=O)c2cccc(Oc3cc(F)cc(Cl)c3)n2)C(C)(C)C1 (centres unmarked) [Compound 2719] |
| < 3000 nM | CC1CN(c2ncccc2C(=O)NS(=O)(=O)c2cccc(Oc3cccc(Cl)c3Cl)n2)C(C)(C)C1 (centres unmarked) [Compound 2720] |
| < 3000 nM | CC1CN(c2ncccc2C(=O)NS(=O)(=O)c2cccc(OCCc3ccccc3)n2)C(C)(C)C1 (centres unmarked) [Compound 2721] |
| < 3000 nM | COc1ccc(OC)c(CNc2cccc(S(=O)(=O)NC(=O)c3cccnc3N3CC(C)CC3(C)C)n2)c1 (centres unmarked) [Compound 2722] |
| < 3000 nM | CCCN(CC1CC1)c1cccc(S(=O)(=O)NC(=O)c2cccnc2N2CC(C)CC2(C)C)n1 (centres unmarked) [Compound 2723] |
| < 3000 nM | CC1CN(c2ncccc2C(=O)NS(=O)(=O)c2cccc(Oc3cccc(C#N)c3)n2)C(C)(C)C1 (centres unmarked) [Compound 2725] |
| < 3000 nM | CCN(CC)c1cccc(S(=O)(=O)NC(=O)c2cccnc2N2CC(C)CC2(C)C)n1 (centres unmarked) [Compound 2726] |
| < 3000 nM | CC1CN(c2ncccc2C(=O)NS(=O)(=O)c2cccc(Oc3ccc4nonc4c3)n2)C(C)(C)C1 (centres unmarked) [Compound 2727] |
| < 3000 nM | COC(=O)c1ccc(Oc2cccc(S(=O)(=O)NC(=O)c3cccnc3N3CC(C)CC3(C)C)n2)cc1 (centres unmarked) [Compound 2728] |
| < 3000 nM | Cc1nc2cc(Oc3cccc(S(=O)(=O)NC(=O)c4cccnc4N4CC(C)CC4(C)C)n3)ccc2s1 (centres unmarked) [Compound 2729] |
| 3000 to 10000 nM | CC(=O)c1ccc(Oc2cccc(S(=O)(=O)NC(=O)c3cccnc3N3CC(C)CC3(C)C)n2)cc1 (centres unmarked) [Compound 2730] |

| EC30 | SMILES |
| --- | --- |
| 3000 to 10000 nM | Cc1cccc(Oc2cccc(S(=O)(=O)NC(=O)c3cccnc3N3CC(C)CC3(C)C)n2)n1 (centres unmarked) [Compound 2731] |
| 3000 to 10000 nM | COC1CCN(c2cccc(S(=O)(=O)NC(=O)c3cccnc3N3CC(C)CC3(C)C)n2)CC1 (centres unmarked) [Compound 2732] |
| 3000 to 10000 nM | CC1CN(c2ncccc2C(=O)NS(=O)(=O)c2cccc(Oc3ccc4c(c3)CCC4=O)n2)C(C)(C)C1 (centres unmarked) [Compound 2733] |
| 3000 to 10000 nM | COCCCN(C)c1cccc(S(=O)(=O)NC(=O)c2cccnc2N2CC(C)CC2(C)C)n1 (centres unmarked) [Compound 2734] |
| 3000 to 10000 nM | CC1CN(c2ncccc2C(=O)NS(=O)(=O)c2cccc(NCCc3ccncc3)n2)C(C)(C)C1 (centres unmarked) [Compound 2735] |
| 3000 to 10000 nM | CC1CN(c2ncccc2C(=O)NS(=O)(=O)c2cccc(Oc3ccc(Cl)cn3)n2)C(C)(C)C1 (centres unmarked) [Compound 2736] |
| < 3000 nM | CC1CN(c2ncccc2C(=O)NS(=O)(=O)c2cccc(OC3CCOc4ccccc43)n2)C(C)(C)C1 (centres unmarked) [Compound 2737] |
| < 3000 nM | CC1CN(c2ncccc2C(=O)NS(=O)(=O)c2cccc(Oc3ccccc3N3CCCCC3)n2)C(C)(C)C1 (centres unmarked) [Compound 2738] |
| < 3000 nM | CC1CN(c2ncccc2C(=O)NS(=O)(=O)c2cccc(Oc3ccc(OC(C)(C)C)cc3)n2)C(C)(C)C1 (centres unmarked) [Compound 2739] |
| < 3000 nM | CC1CN(c2ncccc2C(=O)NS(=O)(=O)c2cccc(OCCc3cccc(F)c3)n2)C(C)(C)C1 (centres unmarked) [Compound 2740] |
| 3000 to 10000 nM | CC#CCOc1cccc(S(=O)(=O)NC(=O)c2cccnc2N2CC(C)CC2(C)C)n1 (centres unmarked) [Compound 2741] |
| 3000 to 10000 nM | CC1CN(c2ncccc2C(=O)NS(=O)(=O)c2cccc(OCCN)n2)C(C)(C)C1 (centres unmarked) [Compound 2742] |
| < 3000 nM | CC1CN(c2ncccc2C(=O)NS(=O)(=O)c2cccc(Nc3ccc(NC(=O)OC(C)(C)C)cc3)n2)C(C)(C)C1 (centres unmarked) [Compound 2743] |
| < 3000 nM | CC1CN(c2ncccc2C(=O)NS(=O)(=O)c2cccc(N(C)Cc3ccccc3Cl)n2)C(C)(C)C1 (centres unmarked) [Compound 2744] |
| < 3000 nM | CC1CN(c2ncccc2C(=O)NS(=O)(=O)c2cccc(N[C@H](C)C(C)(C)C)n2)C(C)(C)C1 (some centres unmarked) [Compound 2745] |
| < 3000 nM | CC(C)CN(C)c1cccc(S(=O)(=O)NC(=O)c2cccnc2N2CC(C)CC2(C)C)n1 (centres unmarked) [Compound 2746] |
| < 3000 nM | CC1CN(c2ncccc2C(=O)NS(=O)(=O)c2cccc(N3CCCCC3C)n2)C(C)(C)C1 (centres unmarked) [Compound 2747] |
